Data reported in patent publication US20210284668A1, “GOLD (I)-PHOSPHINE 1,2,3-TRIAZOLE DERIVATIVES WITH ANTIBIOTIC PROPERTIES” (Centre National de la Recherche Scientifique, priority 2018, published 2021).
Values joined by “and” are separate entries in the source; they are usually repeats but may differ in a detail not shown here. Identical values can stand only once.

Experiments:
S. epidermidis ATCC14990 = assay: MIC by microdilution, S. epidermidis ATCC14990; format: cell-based, Staphylococcus epidermidis; settings: S. epidermidis ATCC14990 (MecA negative, wild-type), in duplicate
In short: (§1)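 Broth microdilution per CLSI (M07-A10) in Mueller-Hinton broth, run in duplicate; MIC recorded as minimal inhibitory concentration. Panel spans wild-type to multidrug-resistant strains, e.g. S. aureus ATCC700699 (MecA+, glycopeptide resistant), S. epidermidis ATCC35984 (MecA+), E. coli ATCC25922 (wild-type).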

S. epidermidis ATCC35984 = assay: MIC by microdilution, S. epidermidis ATCC35984; format: cell-based, Staphylococcus epidermidis; settings: S. epidermidis ATCC35984 (MecA positive), in duplicate
In short: as §1

S. aureus ATCC29213 = assay: MIC by microdilution, S. aureus ATCC29213; format: cell-based, Staphylococcus aureus; settings: S. aureus ATCC29213 (MecA negative, wild-type), Mueller-Hinton broth, in duplicate
In short: (§2)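 Broth microdilution per CLSI document M07-A10, Mueller-Hinton medium, each MIC run in duplicate. Strains include E. coli ATCC25922 (wild-type), S. epidermidis ATCC35984 (MecA positive) and S. aureus ATCC700699 (MecA positive, glycopeptide resistant), within a mixed panel of susceptible and resistant Gram-positive/Gram-negative bacteria.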

E. coli ATCC25922 = assay: MIC by microdilution, E. coli ATCC25922; format: cell-based, Escherichia coli; settings: E. coli ATCC25922 (wild-type), in duplicate
In short: as §1

E. faecalis JH2-2 = assay: MIC by microdilution, E. faecalis JH2-2; format: cell-based, Enterococcus faecalis; parameters: unit not given here; settings: E. faecalis JH2-2 (wild-type), in duplicate
In short: as §2

E. faecalis V583 = assay: MIC by microdilution, E. faecalis V583; format: cell-based, Enterococcus faecalis; settings: E. faecalis V583 (VanB positive, glycopeptide resistant), in duplicate
In short: as §1

S. aureus ST20131365 = assay: MIC by microdilution, S. aureus ST20131365; format: cell-based, Staphylococcus aureus; settings: S. aureus ST20131365 (MecA positive, glycopeptide resistant), in duplicate
In short: as §1

S. aureus ATCC25923 = assay: MIC by microdilution, S. aureus ATCC25923; format: cell-based, Staphylococcus aureus; settings: S. aureus ATCC25923 (MecA negative, wild-type), Mueller-Hinton broth, in duplicate
In short: as §2

[1] = tested on: panel of Gram-positive and Gram-negative strains; assay: Antibacterial profile on the selected panel of strains; format: cell-based
In short: as §1

E. faecalis UCN41 = assay: MIC by microdilution, E. faecalis UCN41; format: cell-based, Enterococcus faecalis; parameters: unit not given here; settings: E. faecalis UCN41 (VanA positive, glycopeptide resistant), in duplicate
In short: as §2

E. faecium AUS0004 = assay: MIC by microdilution, E. faecium AUS0004; format: cell-based, Enterococcus faecium; settings: E. faecium AUS0004 (VanB positive, glycopeptide resistant), in duplicate
In short: as §2

E. faecium ATCC19434T = assay: MIC by microdilution, E. faecium ATCC19434T; format: cell-based, Enterococcus faecium; parameters: unit not given here; settings: E. faecium ATCC19434T (wild-type), in duplicate
In short: as §2

human hepatocyte = assay: Human hepatocyte cytotoxicity profile; format: cell-based; settings: human hepatocytes
Experimental: FIG. 1 is a diagram representing the TMB3 human hepatocyte cytotoxicity between 7 to 25 μM (FIG. 1 A) and the ampicillin human hepatocyte cytotoxicity between 7 to 25 μM (control) (FIG. 1B. In the diagram, the abscissa represents the concentration in Log per μM and the ordinate the viability of the cells in percentage compared to the human hepatocyte culture without ampicillin trihydrate or TMB3.
The human hepatocyte cytotoxicity profile has been evaluated between 7 and 25 μM for TMB derivatives as a toxicity appeared from 25 μM for the initial hit TMB3 during a preliminary assessment.

E. faecium BM4147 = assay: MIC by microdilution, E. faecium BM4147; format: cell-based, Enterococcus faecium; parameters: unit not given here; settings: E. faecium BM4147 (VanA positive, glycopeptide resistant), in duplicate
In short: as §2

S. aureus ATCC700699 = assay: MIC by microdilution, S. aureus ATCC700699; format: cell-based, Staphylococcus aureus; parameters: unit not given here; settings: S. aureus ATCC700699 (MecA positive, glycopeptide resistant), in duplicate
In short: as §1

CC[P+](CC)(CC)[Au-][c]1nn[nH]c1COC(=O)NC(C(=O)NC1C(=O)N2C1SC(C)(C)C2C(=O)O)c1ccccc1 (centres unmarked) [TMB3]
Minimal Inhibitory Concentration (MIC) (S. epidermidis ATCC14990): ≤0.06
Minimal Inhibitory Concentration (MIC) (S. epidermidis ATCC35984): ≤0.06
Minimal Inhibitory Concentration (MIC) (S. aureus ATCC29213): 0.125 and 0.25
Minimal Inhibitory Concentration (MIC) (E. coli ATCC25922): >8
Minimal Inhibitory Concentration (MIC) (E. faecalis JH2-2): 0.5 and 1
Minimal Inhibitory Concentration (MIC) (E. faecalis V583): 1
Minimal Inhibitory Concentration (MIC) (S. aureus ST20131365): 0.125 and 0.25
Minimal Inhibitory Concentration (MIC) (S. aureus ATCC25923): 0.125 and 0.25
MICs measured, as range of concentrations ([1]; depending on the bacteria strains): 0.08 to 0.63 µM
antimicrobial / antibacterial activity (in words) ([1]; summary of Tables 1-12): have antimicrobial activity
Minimal Inhibitory Concentration (MIC) (E. faecalis UCN41): 1 and 0.5
Minimal Inhibitory Concentration (MIC) (E. faecium AUS0004): 1
Minimal Inhibitory Concentration (MIC) (E. faecium ATCC19434T): 1 and 0.5
concentration at which cytotoxicity appears (human hepatocyte; evaluated between 7 and 25 μM): 20 µM
concentration from which toxicity appeared (human hepatocyte; preliminary assessment): 25 µM
Minimal Inhibitory Concentration (MIC) (E. faecium BM4147): 2 and 1
Minimal Inhibitory Concentration (MIC) (S. aureus ATCC700699): 0.125 and 0.25
